This passage reports GI50 and TGI results from PubChem BioAssay (NCI).

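Dose response: 5 concentrations. Exposure: 48 h. Format: 96-well plates. Endpoint: linear interpolation; highest concentration if not reached. Abbreviation: GI50, concentration required for 50% inhibition of growth. The concentration for full growth arrest is given as TGI.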 Where only a bound is given, the exact number is not on record here.

As a reminder, the GI50 is the concentration at which growth is held to half of that of the control. Usually TGI stands for the concentration at which net growth stops. Lower therefore signals greater sensitivity of the cells.

Among the test systems are HOP-92 NSCLC; CCRF-CEM leukemia; NCI/ADR-RES ovarian; PC-3 prostate; CAKI-1 renal; HCT-15 colon; MALME-3M melanoma; SK-OV-3 ovarian.
Holding throughout (assay): DTP human tumour cell line panel, 48 h

`N#Cc1c2ccccc2c2nnc3cc(Cl)c(Cl)cc3n12`: the GI50 in the assay on HOP-92 NSCLC is 42 µM; in the assay with CCRF-CEM leukemia it was 85.4 µM; with NCI/ADR-RES ovarian, 31.6 µM; in the assay with PC-3 prostate, 30 µM; in the assay with CAKI-1 renal, 77.4 µM; in the assay with HCT-15 colon it was 33 µM. The GI50 with MALME-3M melanoma and in the assay on SK-OV-3 ovarian was above 100 µM in each case. The TGI with HOP-92 NSCLC is above 100 µM; with CCRF-CEM leukemia it was above 100 µM; in the assay on NCI/ADR-RES ovarian, 97.8 µM; with PC-3 prostate, 73.7 µM; in the assay with CAKI-1 renal, above 100 µM; with HCT-15 colon it was above 100 µM. Moreover, the TGI with MALME-3M melanoma and in the assay on SK-OV-3 ovarian was above 100 µM in each case.
For `CNCCNc1nc2ccccc2c2c(=O)c3cccc(OC)c3sc12`, the GI50 in the assay with HOP-92 NSCLC is 1.13 µM; in the assay on CCRF-CEM leukemia, 1.43 µM; with NCI/ADR-RES ovarian, 1.23 µM; in the assay with PC-3 prostate, 1.24 µM; in the assay with CAKI-1 renal, 1.32 µM; in the assay on HCT-15 colon, 0.829 µM. The GI50 in the assay with MALME-3M melanoma was 1.83 µM; in the assay with SK-OV-3 ovarian, 1.65 µM. Further, the TGI was 3.77 µM in the assay on HOP-92 NSCLC; 3.2 µM with CCRF-CEM leukemia; 2.84 µM in the assay with NCI/ADR-RES ovarian; 2.8 µM in the assay on PC-3 prostate; 2.71 µM in the assay on CAKI-1 renal; 2.15 µM with HCT-15 colon. Besides, the TGI with MALME-3M melanoma was found to be 3.59 µM; in the assay on SK-OV-3 ovarian, 3.84 µM.
In the case of `CC(C)[C@]12O[C@H]1[C@@H]1O[C@]13[C@]1(O[C@H]1C[C@H]1c4c(C(=O)c5ccccc5)oc(OC(=O)c5ccccc5)c4CC[C@@]13C)[C@@H]2O`, the GI50 in the assay with HOP-92 NSCLC was 0.0649 µM; with CCRF-CEM leukemia, 0.0429 µM; in the assay with NCI/ADR-RES ovarian, 0.0418 µM; in the assay with PC-3 prostate, 0.0358 µM; in the assay on CAKI-1 renal, 0.0183 µM; in the assay on HCT-15 colon it was 0.0291 µM. The 50% growth inhibitory concentration (GI50) with MALME-3M melanoma is 0.0189 µM; in the assay on SK-OV-3 ovarian, 0.0351 µM. Further, the TGI in the assay on NCI/ADR-RES ovarian was 3.42 µM; in the assay with CAKI-1 renal it was 50.2 µM; with HCT-15 colon it was above 100 µM; in the assay with MALME-3M melanoma, 0.0498 µM; in the assay on SK-OV-3 ovarian, above 100 µM.
As for `COc1ccc(C2CC(c3cc(OC)c(OC)c(OC)c3)=NN2)cc1` (stereo not given), the GI50 is 20.1 µM with HOP-92 NSCLC; 6.34 µM in the assay on CCRF-CEM leukemia; 6.67 µM with NCI/ADR-RES ovarian; 6.03 µM with PC-3 prostate; 7.39 µM in the assay on CAKI-1 renal; 3.48 µM in the assay on HCT-15 colon. Moreover, the results for the GI50 in the assay on MALME-3M melanoma and in the assay with SK-OV-3 ovarian were 24.7 µM and 12.4 µM, respectively. For the same compound, the concentration for total growth inhibition (TGI) was above 100 µM in the assay with HOP-92 NSCLC; above 100 µM in the assay with CCRF-CEM leukemia; 94.8 µM in the assay on NCI/ADR-RES ovarian; above 100 µM in the assay with PC-3 prostate; 63.5 µM with CAKI-1 renal; above 100 µM in the assay on HCT-15 colon. For the same compound, the TGI in the assay on MALME-3M melanoma and in the assay with SK-OV-3 ovarian was above 100 µM each time.
For the compound `Cn1c(=O)c(Cc2ccc(F)cc2F)cc2cnc(NC3CCOCC3)nc21`, the GI50 was 2.13 µM with HOP-92 NSCLC; above 25 µM with CCRF-CEM leukemia; above 15.5 µM with NCI/ADR-RES ovarian; above 25 µM in the assay with PC-3 prostate; above 19.4 µM in the assay on CAKI-1 renal; above 25 µM in the assay on HCT-15 colon. The GI50 in the assay on MALME-3M melanoma and with SK-OV-3 ovarian was above 25 µM throughout. In addition, the TGI with HOP-92 NSCLC, in the assay on CCRF-CEM leukemia, with NCI/ADR-RES ovarian, in the assay with PC-3 prostate, in the assay on CAKI-1 renal and in the assay with HCT-15 colon was above 25 µM in each case. Besides, the concentration for total growth inhibition (TGI) in the assay on MALME-3M melanoma and in the assay on SK-OV-3 ovarian was above 25 µM throughout.
`COc1ccc(C(=O)Nc2cccc(C3CC(=O)c4c(cc(OC)c(OC)c4OC)O3)c2)cc1` (stereo not given): the GI50 in the assay with HOP-92 NSCLC is 1.66 µM; in the assay with CCRF-CEM leukemia, 0.426 µM; in the assay on NCI/ADR-RES ovarian, 0.629 µM; in the assay with PC-3 prostate it was 0.736 µM; in the assay on CAKI-1 renal, 1.58 µM; in the assay on HCT-15 colon, 0.475 µM. Besides, the results for the GI50 with MALME-3M melanoma and in the assay with SK-OV-3 ovarian were 1.56 µM and 3.63 µM, respectively. In addition, the concentration for total growth inhibition (TGI) in the assay on HOP-92 NSCLC was 8.31 µM; with CCRF-CEM leukemia it was above 100 µM; in the assay on NCI/ADR-RES ovarian it was 17.6 µM; in the assay with PC-3 prostate it was 27.9 µM; in the assay with CAKI-1 renal it was above 100 µM; with HCT-15 colon it was above 100 µM. For the same compound, the values for the total growth inhibition concentration (TGI) with MALME-3M melanoma and in the assay with SK-OV-3 ovarian were 32.6 µM and 98.4 µM, respectively.
`C=C1C(=O)O[C@H]2[C@H]1CC/C(Cn1cc(CCC)nn1)=C\CC[C@@]1(C)O[C@@H]21`: the GI50 was 2.95 µM with HOP-92 NSCLC; 3 µM with CCRF-CEM leukemia; 15.2 µM with NCI/ADR-RES ovarian; 14.9 µM in the assay on PC-3 prostate; 3.91 µM with CAKI-1 renal; 2.9 µM in the assay on HCT-15 colon. Besides, the GI50 in the assay with MALME-3M melanoma is 4.7 µM; with SK-OV-3 ovarian, 26 µM. For the same compound, the total growth inhibition concentration (TGI) was 7.13 µM with HOP-92 NSCLC; 9.71 µM in the assay with CCRF-CEM leukemia; 33.4 µM in the assay with NCI/ADR-RES ovarian; 29.4 µM with PC-3 prostate; 16.2 µM with CAKI-1 renal; 12.3 µM in the assay with HCT-15 colon. Moreover, the total growth inhibition concentration (TGI) worked out at 18.4 µM in the assay on MALME-3M melanoma and 68.5 µM in the assay on SK-OV-3 ovarian.
`CSC(=S)N/N=C(\C)c1ccccn1`: the GI50 in the assay with HOP-92 NSCLC was 1.39 µM; with CCRF-CEM leukemia, below 0.01 µM; with NCI/ADR-RES ovarian it was 0.0262 µM; in the assay on PC-3 prostate, 0.0452 µM; in the assay with CAKI-1 renal, 0.267 µM; in the assay with HCT-15 colon it was 0.16 µM. Further, the results for the GI50 in the assay with MALME-3M melanoma and in the assay on SK-OV-3 ovarian were 0.177 µM and 0.589 µM, respectively. Further, the TGI in the assay on HOP-92 NSCLC is 26.1 µM; in the assay on CCRF-CEM leukemia it was 1.68 µM; with NCI/ADR-RES ovarian it was 15.7 µM; in the assay on PC-3 prostate, above 82.2 µM; with CAKI-1 renal, 7.25 µM; with HCT-15 colon, 24.5 µM. Also, the TGI in the assay on MALME-3M melanoma turned out to be 9.1 µM; in the assay on SK-OV-3 ovarian, 15.2 µM.
Turning to `O=[N+]([O-])c1ccc2[nH]cc(-c3c4ccccc4cc4[nH]c5ccc([N+](=O)[O-])cc5c34)c2c1`, the GI50 is 2.25 µM with HOP-92 NSCLC; 2.38 µM in the assay with CCRF-CEM leukemia; 2.91 µM in the assay with NCI/ADR-RES ovarian; 1.9 µM in the assay on PC-3 prostate; 1.8 µM in the assay on CAKI-1 renal; 1.88 µM with HCT-15 colon. The GI50 is 2.32 µM with MALME-3M melanoma and 3.38 µM in the assay on SK-OV-3 ovarian. In addition, the TGI with HOP-92 NSCLC was 5.89 µM; in the assay on CCRF-CEM leukemia it was 6.71 µM; with NCI/ADR-RES ovarian it was 11.5 µM; in the assay on PC-3 prostate, 4.43 µM; in the assay on CAKI-1 renal it was 3.64 µM; in the assay on HCT-15 colon, 4.49 µM. Moreover, the TGI in the assay on MALME-3M melanoma came out at 6.77 µM; with SK-OV-3 ovarian it was 10.8 µM.
Regarding `COc1ccc(-n2c(N)c(C(=O)NCCN3CCOCC3)c3nc4ccccc4nc32)cc1OC`, the GI50 in the assay with HOP-92 NSCLC is 20.3 µM; in the assay with CCRF-CEM leukemia, 5.15 µM; with NCI/ADR-RES ovarian, 36 µM; in the assay with PC-3 prostate, 11.7 µM; in the assay on CAKI-1 renal, 4.62 µM; in the assay with HCT-15 colon, 15 µM. Further, the results for the GI50 with MALME-3M melanoma and with SK-OV-3 ovarian were 6.32 µM and 85.5 µM, respectively. In addition, the concentration for total growth inhibition (TGI) in the assay on HOP-92 NSCLC was above 100 µM; in the assay on CCRF-CEM leukemia it was above 100 µM; in the assay on NCI/ADR-RES ovarian it was above 100 µM; in the assay with PC-3 prostate it was 87.3 µM; in the assay on CAKI-1 renal, above 100 µM; in the assay on HCT-15 colon, above 100 µM. Moreover, the figures for the TGI with MALME-3M melanoma and in the assay with SK-OV-3 ovarian were 71.8 µM and above 100 µM, respectively.
In the case of `Cn1cccc1-c1cc(-c2ccc(Br)cc2)nc(N)c1C#N`, the GI50 is 47.8 µM in the assay on HOP-92 NSCLC; above 100 µM with CCRF-CEM leukemia; above 100 µM in the assay on NCI/ADR-RES ovarian; above 100 µM in the assay with PC-3 prostate; above 100 µM in the assay on CAKI-1 renal; above 100 µM in the assay on HCT-15 colon. For the same compound, the GI50 in the assay with MALME-3M melanoma and in the assay on SK-OV-3 ovarian was above 100 µM in each case. Further, the TGI with HOP-92 NSCLC, with CCRF-CEM leukemia, in the assay with NCI/ADR-RES ovarian, with PC-3 prostate, in the assay on CAKI-1 renal and with HCT-15 colon was above 100 µM each time. Further, the TGI in the assay on MALME-3M melanoma and with SK-OV-3 ovarian was above 100 µM in each case.
With `CC(O)CN(CCN(CC(C)O)CC(C)O)CC(C)O.O=[N+]([O-])O.[Cu+2]` (stereo not given), the GI50 with HOP-92 NSCLC, in the assay with CCRF-CEM leukemia, in the assay on NCI/ADR-RES ovarian, in the assay on PC-3 prostate, with CAKI-1 renal and in the assay on HCT-15 colon was above 100 µM in each case. The GI50 in the assay on MALME-3M melanoma and in the assay on SK-OV-3 ovarian was above 100 µM in each case. The total growth inhibition concentration (TGI) in the assay on HOP-92 NSCLC, in the assay with CCRF-CEM leukemia, in the assay with NCI/ADR-RES ovarian, with PC-3 prostate, in the assay with CAKI-1 renal and in the assay with HCT-15 colon was above 100 µM in each case. For the same compound, the concentration for total growth inhibition (TGI) with MALME-3M melanoma and with SK-OV-3 ovarian was above 100 µM each time.
With `COc1cc(/C=C/C(=O)c2ccc(Nc3nc(Nc4ccc(F)cc4)nc(Nc4ccc(F)cc4)n3)cc2)cc(OC)c1OC`, the GI50 is 2.3 µM with HOP-92 NSCLC; 2.35 µM in the assay with CCRF-CEM leukemia; 4.69 µM in the assay on NCI/ADR-RES ovarian; 3.18 µM in the assay with PC-3 prostate; above 100 µM in the assay on CAKI-1 renal; 5.53 µM with HCT-15 colon. Further, the GI50 in the assay with MALME-3M melanoma was 17.1 µM; in the assay with SK-OV-3 ovarian, 80.7 µM. Moreover, the concentration for total growth inhibition (TGI) in the assay with HOP-92 NSCLC is 42.6 µM; in the assay with CCRF-CEM leukemia, above 100 µM; in the assay with NCI/ADR-RES ovarian, above 100 µM; with PC-3 prostate, above 100 µM; in the assay on CAKI-1 renal, above 100 µM; in the assay on HCT-15 colon, above 100 µM. Also, the TGI was 82.4 µM with MALME-3M melanoma and above 100 µM in the assay with SK-OV-3 ovarian.
